Experimental data reported in ChEMBL document CHEMBL1145975, “Tricyclic indole-2-carboxylic acids: highly in vivo active and selective antagonists for the glycine binding site of the NMDA receptor” (J Med Chem, 2003).

Columns and labels:
[1] = target: T1, Glutamate receptor ionotropic, NMDA 1 (Rattus norvegicus, UniProt P35439); assay: Affinity for glycine site of N-methyl-D-aspartate glutamate receptor determined by displacement of tritium labeled selective glycine antagonist [3H]- SM-18400; format: functional
Mus musculus [2] = assay: Number of mice protected from tonic seizures to that of number tested was determined when compound (3 mg/kg) was administered intravenously to 10 mice; format: functional
Mus musculus [3] = species on record: Mus musculus; assay: Effective dose of compound required to inhibit N-methyl D-aspartate induced seizures in mice; format: functional
Rattus norvegicus [4] = species on record: Rattus norvegicus; assay: Area under the concentration-time curve from time zero to infinity in whole brain homogenates was determined; format: ADME, organism-based; conditions: in vivo
[5] = target: Glutamate receptor ionotropic, AMPA (Rattus norvegicus, UniProt P19490+P19491+P19492+P19493); assay: Binding affinity for non-NMDA receptor determined by displacement of [3H]- AMPA (2-amino-(3-(3-hydroxy-5-methylisoxazole-4-yl)propanoic acid)) in rat cortical membranes; format: cell membranes, Membrane
[6] = target: Glutamate receptor ionotropic, kainate; assay: Binding affinity for non-NMDA receptor determined by displacement of [3H]- KA (kainic acid) in rat cortical membranes; format: cell membranes, Membrane
[7] = Binding affinity for glutamate site of N-methyl-D-aspartate glutamate receptor determined by displacement of [3H]- glutamate in rat cortical membranes; format: cell membranes, Membrane
[8] = target: T1, Glutamate receptor ionotropic, NMDA 1; assay: Binding affinity for glycine site of N-methyl-D-aspartate glutamate receptor determined by displacement of [3H]- DCKA (5,7-dichlorokynurenic acid) in rat cortical membranes; format: cell membranes, Membrane
[9] = target: T1, Glutamate receptor ionotropic, NMDA 1; assay: Binding affinity for glycine site of N-methyl-D-aspartate glutamate receptor determined by displacement of [3H]- glycine in rat cortical membranes; format: cell membranes, Membrane
Rattus norvegicus [10] = assay: Percent of reduction of cortical infarct volume at dose of 20 mg/kg bolus +20 mg/kg/hr continuous infusion was determined in normotensive rats; format: functional

IC50 [1]	AUC (Rattus norvegicus [4])	Ki [5]	Ki [6]	Ki [7]	Ki [8]	Ki [9]	Structure (SMILES)	No. of protected/tested (Mus musculus [2])	ED50 (Mus musculus [3])	Cortical infarct volume (Rattus norvegicus [10])
7.6 nM	–	–	–	–	–	–	O=C(O)Cc1ccccc1NC(=O)C[C@@H]1CCc2cc(Cl)cc3[nH]c(C(=O)O)c1c23	3	–	–
18 nM	–	–	–	–	–	–	NCc1ccc(NC(=O)C[C@@H]2CCc3cc(Cl)cc4[nH]c(C(=O)O)c2c34)cc1	3	–	–
29 nM	–	–	–	–	–	–	C[C@H](C(=O)O)c1cc(CN)ccc1NC(=O)C[C@@H]1CCc2cc(Cl)cc3[nH]c(C(=O)O)c1c23	4	3.7 mg/kg	–
2.7 nM	10 µg·min/g	> 10000 nM	> 10000 nM	> 10000 nM	1 nM	11 nM	C[C@@H](C(=O)O)c1cc(CN)ccc1NC(=O)C[C@@H]1CCc2cc(Cl)cc3[nH]c(C(=O)O)c1c23	5	2.3 mg/kg	84%
1.5 nM	–	–	–	–	–	–	NCc1ccc(NC(=O)C[C@@H]2CCc3cc(Cl)cc4[nH]c(C(=O)O)c2c34)c(CC(=O)O)c1	5	1.8 mg/kg	30%
19 nM	–	–	–	–	–	–	O=C(C[C@@H]1CCc2cc(Cl)cc3[nH]c(C(=O)O)c1c23)Nc1ccccc1	3	–	–
1 nM	3.3 µg·min/g	–	–	–	–	–	NCc1ccc(NC(=O)C[C@@H]2CCc3cc(Cl)cc4[nH]c(=O)c(=O)n2c34)c(OCC(=O)O)c1	10	0.41 mg/kg	50%
1.2 nM	–	–	–	–	–	–	NCc1ccc(NC(=O)C[C@@H]2CCc3cc(Cl)cc4[nH]c(C(=O)O)c2c34)c(OCC(=O)O)c1 (stereo in doubt; 3a)	2	5 mg/kg	–
33 nM	–	–	–	–	–	–	NCc1ccc(NC(=O)C[C@@H]2CCc3cc(Cl)cc4[nH]c(C(=O)O)c2c34)c(OCC(=O)O)c1 (stereo in doubt; 3b)	–	–	–
